# Target: T1, hGIP-R (Homo sapiens, UniProt P48546)
# T1 construct: expressed in transfected cells; host or cells: HEK-293 clonal cell lines
# T1 sequence (P48546 22-466): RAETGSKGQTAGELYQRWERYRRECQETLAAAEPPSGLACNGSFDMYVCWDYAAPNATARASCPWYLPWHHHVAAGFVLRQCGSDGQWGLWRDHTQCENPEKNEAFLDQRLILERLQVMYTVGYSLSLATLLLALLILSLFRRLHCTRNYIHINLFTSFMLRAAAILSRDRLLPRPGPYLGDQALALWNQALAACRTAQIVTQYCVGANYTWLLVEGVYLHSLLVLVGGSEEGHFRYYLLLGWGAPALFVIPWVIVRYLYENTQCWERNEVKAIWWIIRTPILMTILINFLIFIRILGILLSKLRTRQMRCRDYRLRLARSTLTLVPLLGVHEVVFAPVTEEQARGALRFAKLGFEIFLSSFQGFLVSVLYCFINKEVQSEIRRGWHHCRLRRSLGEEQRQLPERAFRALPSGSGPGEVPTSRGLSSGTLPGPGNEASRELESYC
# Assay: Functional hGIP-R Assay (cAMP formation, HTRF)
# Assay type: cell-based
# Details: for Emax: cAMP efficacy, percent of maximal response to GIP(1-42)OH, 37° C., 0.1% bovine casein, arithmetic mean ± SEM; for EC50: cAMP potency, HEK-293 cells expressing hGIP-R, incubated at 37° C. in the presence of 0.1% bovine casein, geometric mean, read-out: Human GIP-R EC50, nM (SEM, n)
# In short: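 Relative EC50 and Emax came from four-parameter logistic fits of cAMP as a percent of the human GIP (1-42) OH maximal response. The cAMP was measured by competitive HTRF after 30 min, 37 °C compound exposure of hGIP-R HEK-293 clones in IBMX (250 μM)-containing medium.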
Emax [%],EC50 [nM],SMILES
78.1 ± 4.92,118,"Cn1cc(-c2cc(C(F)(F)F)nn2CC(C)(C)NC(=O)[C@@H](Cc2cnn(C(F)F)c2)NC(=O)[C@H]2C[C@@H]2c2nc3c(Cl)nn(C)c3cc2C#N)cc(F)c1=O [Example 155, (1S,2S)-2-(3-Chloro-6-cyano-1-methyl-1H-pyrazolo[4,3-b]pyridin-5-yl)-N—((R)-3-(1-(difluoromethyl)-1H-pyrazol-4-yl)-1-((1-(5-(5-fluoro-1-methyl-6-oxo-1,6-dihydropyridin-3-yl)-3-(trifluoromethyl)-1H-pyrazol-1-yl)-2-methylpropan-2-yl)amino)-1-oxopropan-2-yl)cyclopropane-1-carboxamide]"
16.5 ± 0.234,108,"Cn1cc(-c2cc(C(F)(F)F)nn2CC(C)(C)NC(=O)[C@@H](Cc2cnn(C(F)F)c2)NC(=O)[C@H]2C[C@@H]2c2nc3cnn(C)c3cc2F)cc(F)c1=O [Example 157, (1S,2S)-N-((R)-3-(1-(Difluoromethyl)-1H-pyrazol-4-yl)-1-((1-(5-(5-fluoro-1-methyl-6-oxo-1,6-dihydropyridin-3-yl)-3-(trifluoromethyl)-1H-pyrazol-1-yl)-2-methylpropan-2-yl)amino)-1-oxopropan-2-yl)-2-(6-fluoro-1-methyl-1H-pyrazolo[4,3-b]pyridin-5-yl)cyclopropane-1-carboxamide]"
102 ± 1.41,1.23,"Cc1nc(-c2cnc3nc(C4CC4)cn3c2)ccc1[C@H]1C[C@@]12CCN([C@H](Cc1cnn(C(F)F)c1)C(=O)NC(C)(C)Cn1nc(C(F)(F)F)cc1-c1cnc(C(C)(C)O)nc1)C2=O [Example 158, (R)-2-((1R,3R)-1-(6-(2-cyclopropylimidazo[1,2-a]pyrimidin-6-yl)-2-methylpyridin-3-yl)-4-oxo-5-azaspiro[2.4]heptan-5-yl)-3-(1-(difluoromethyl)-1H-pyrazol-4-yl)-N-(1-(5-(2-(2-hydroxypropan-2-yl)pyrimidin-5-yl)-3-(trifluoromethyl)-1H-pyrazol-1-yl)-2-methylpropan-2-yl)propanamide]"
95.3 ± 3.03,0.397,"Cc1nc(-c2cnc3nc(C4CC4)cn3c2)ccc1[C@H]1C[C@@]12CCN([C@H](Cc1cnn(C(F)F)c1)C(=O)NC(C)(C)Cn1nc(C(F)(F)F)cc1-c1ccc(C(C)(C)O)nc1)C2=O [Example 159, (R)-2-((1R,3R)-1-(6-(2-Cyclopropylimidazo[1,2-a]pyrimidin-6-yl)-2-methylpyridin-3-yl)-4-oxo-5-azaspiro[2.4]heptan-5-yl)-3-(1-(difluoromethyl)-1H-pyrazol-4-yl)-N-(1-(5-(6-(2-hydroxypropan-2-yl)pyridin-3-yl)-3-(trifluoromethyl)-1H-pyrazol-1-yl)-2-methylpropan-2-yl)propanamide]"
119 ± 3.76,1.24,"COCc1cn2cc(-c3ccc([C@H]4C[C@@]45CCN([C@H](Cc4cnn(C(F)F)c4)C(=O)NC(C)(C)Cn4nc(C(F)(F)F)cc4-c4ccnc(C(C)(C)O)c4)C5=O)c(C)n3)cnc2n1 [Example 160, (R)-3-(1-(difluoromethyl)-1H-pyrazol-4-yl)-N-(1-(5-(2-(2-hydroxypropan-2-yl)pyridin-4-yl)-3-(trifluoromethyl)-1H-pyrazol-1-yl)-2-methylpropan-2-yl)-2-((1R,3R)-1-(6-(2-(methoxymethyl)imidazo[1,2-a]pyrimidin-6-yl)-2-methylpyridin-3-yl)-4-oxo-5-azaspiro[2.4]heptan-5-yl)propanamide]"
71.7 ± 1.02,1.47,"Cn1cc2cc(-c3ccc([C@H]4C[C@@]45CCN([C@H](Cc4cnn(C(F)F)c4)C(=O)NC(C)(C)Cn4nc(C(F)(F)F)cc4-c4ccn(C6CC6)c(=O)n4)C5=O)c(Cl)c3)cnc2n1 [Example 161, (R)-2-((1S,3R)-1-(2-chloro-4-(2-methyl-2H-pyrazolo[3,4-b]pyridin-5-yl)phenyl)-4-oxo-5-azaspiro[2.4]heptan-5-yl)-N-(1-(5-(1-cyclopropyl-2-oxo-1,2-dihydropyrimidin-4-yl)-3-(trifluoromethyl)-1H-pyrazol-1-yl)-2-methylpropan-2-yl)-3-(1-(difluoromethyl)-1H-pyrazol-4-yl)propanamide]"
50,0.179,"Cn1cc2cc(-c3ccc([C@H]4C[C@@]45CCN([C@H](Cc4cnn(C(F)F)c4)C(=O)NC(C)(C)Cn4nc(C(F)(F)F)cc4-c4ccc(P(C)(C)=O)cc4)C5=O)c(Cl)c3)cnc2n1 [Example 162, (R)-2-((1S,3R)-1-(2-chloro-4-(2-methyl-2H-pyrazolo[3,4-b]pyridin-5-yl)phenyl)-4-oxo-5-azaspiro[2.4]heptan-5-yl)-3-(1-(difluoro-methyl)-1H-pyrazol-4-yl)-N-(1-(5-(4-(dimethyl-phosphoryl)phenyl)-3-(trifluoro-methyl)-1H-pyrazol-1-yl)-2-methylpropan-2-yl)propanamide]"
109,3.95,"Cn1cc2cc(-c3ccc([C@H]4C[C@@]45CCN([C@H](Cc4cnn(C(F)F)c4)C(=O)NC(C)(C)Cn4nc(C(F)(F)F)cc4P(C)(C)=O)C5=O)c(Cl)c3)cnc2n1 [Example 163, (R)-2-((1S,3R)-1-(2-chloro-4-(2-methyl-2H-pyrazolo[3,4-b]pyridin-5-yl)phenyl)-4-oxo-5-azaspiro[2.4]heptan-5-yl)-3-(1-(difluoro-methyl)-1H-pyrazol-4-yl)-N-(1-(5-(dimethyl-phosphoryl)-3-(trifluoro-methyl)-1H-pyrazol-1-yl)-2-methylpropan-2-yl)propanamide]"
53.3 ± 0.286,4.31,"CCn1cc2cc(-c3ccc([C@H]4C[C@@]45CCN([C@H](Cc4cnn(C(F)F)c4)C(=O)NC(C)(C)Cn4nc(C(F)(F)F)cc4-c4cnc(C(C)(C)O)nc4)C5=O)c(C)n3)cnc2n1 [Example 164, (R)-3-(1-(difluoromethyl)-1H-pyrazol-4-yl)-2-((1R,3R)-1-(6-(2-ethyl-2H-pyrazolo[3,4-b]pyridin-5-yl)-2-methylpyridin-3-yl)-4-oxo-5-azaspiro[2.4]heptan-5-yl)-N-(1-(5-(2-(2-hydroxypropan-2-yl)pyrimidin-5-yl)-3-(trifluoromethyl)-1H-pyrazol-1-yl)-2-methylpropan-2-yl)propanamide]"
65.7 ± 4.25,0.44,"Cc1cn2cc(-c3ccc([C@H]4C[C@@]45CCN([C@H](Cc4cnn(C(F)F)c4)C(=O)NC(C)(C)Cn4nc(C(F)(F)F)cc4-c4ccn(C6CC6)c(=O)c4)C5=O)c(Cl)c3)cnc2n1 [Example 165, (R)-2-((1S,3R)-1-(2-chloro-4-(2-methylimidazo[1,2-a]pyrimidin-6-yl)phenyl)-4-oxo-5-azaspiro[2.4]heptan-5-yl)-N-(1-(5-(1-cyclopropyl-2-oxo-1,2-dihydropyridin-4-yl)-3-(trifluoromethyl)-1H-pyrazol-1-yl)-2-methylpropan-2-yl)-3-(1-(difluoromethyl)-1H-pyrazol-4-yl)propanamide]"
110,1.81,"COCc1cn2cc(-c3ccc([C@H]4C[C@@]45CCN([C@H](Cc4cnn(C(F)F)c4)C(=O)NC(C)(C)Cn4nc(C(F)(F)F)cc4-c4ccc(C(C)(C)O)nc4)C5=O)c(C)n3)cnc2n1 [Example 168, (R)-3-(1-(difluoromethyl)-1H-pyrazol-4-yl)-N-(1-(5-(6-(2-hydroxypropan-2-yl)pyridin-3-yl)-3-(trifluoromethyl)-1H-pyrazol-1-yl)-2-methylpropan-2-yl)-2-((1R,3R)-1-(6-(2-(methoxymethyl)imidazo[1,2-a]pyrimidin-6-yl)-2-methylpyridin-3-yl)-4-oxo-5-azaspiro[2.4]heptan-5-yl)propanamide]"
58.9 ± 1.86,1.15,"Cc1nc(-c2cnc3nn(C4CC4)cc3c2)ccc1[C@H]1C[C@@]12CCN([C@H](Cc1cnn(C(F)F)c1)C(=O)NC(C)(C)Cn1nc(C(F)(F)F)cc1-c1ccn(C3CC3)c(=O)c1)C2=O [Example 169, (R)—N-(1-(5-(1-cyclopropyl-2-oxo-1,2-dihydropyridin-4-yl)-3-(trifluoromethyl)-1H-pyrazol-1-yl)-2-methylpropan-2-yl)-2-((1R,3R)-1-(6-(2-cyclopropyl-2H-pyrazolo[3,4-b]pyridin-5-yl)-2-methylpyridin-3-yl)-4-oxo-5-azaspiro[2.4]heptan-5-yl)-3-(1-(difluoromethyl)-1H-pyrazol-4-yl)propanamide]"
97.2 ± 0.998,0.846,"Cc1nc(-c2cnc3nc(C4CC4)cn3c2)ccc1[C@H]1C[C@@]12CCN([C@H](Cc1cnn(C(F)F)c1)C(=O)NC(C)(C)Cn1nc(C(F)(F)F)cc1-c1cc(F)c(=O)n(C)c1)C2=O [Example 170, (R)-2-((1R,3R)-1-(6-(2-cyclopropylimidazo[1,2-a]pyrimidin-6-yl)-2-methylpyridin-3-yl)-4-oxo-5-azaspiro[2.4]heptan-5-yl)-3-(1-(difluoromethyl)-1H-pyrazol-4-yl)-N-(1-(5-(5-fluoro-1-methyl-6-oxo-1,6-dihydropyridin-3-yl)-3-(trifluoromethyl)-1H-pyrazol-1-yl)-2-methylpropan-2-yl)propanamide]"

# Reference: patent US20260108546A1 (ELI LILLY AND COMPANY, priority 2024, published 2026)
